Source: US9896433B2, “Antiviral compounds” (priority 2013, dated 2018)

Legend:
Experiment in all cases: microbe, parasite or virus in culture
[1] = system: Pseudotyped HCV GT1a particles (HCVpp, H77 strain E1/E2); type: cell-based, Hepatitis C virus GT1a H77 strain; details: Hepatitis C virus, 72 h, read-out: HCVpp GT-1a (EC50, μM)
[2] = system: Pseudotyped HCV GT1b particles (HCVpp, Con1 strain E1/E2); type: cell-based, Hepatitis C virus GT1b Con1 strain; details: Hepatitis C virus, 72 h, read-out: HCVpp GT-1b (EC50, μM)
[3] = system: pseudotyped VSV G particles (VSVpp); type: cell-based; details: Vesicular stomatitis virus, 72 h, read-out: VSVpp (EC50, μM)

SMILES	EC50 [1] [µM]	EC50 [2] [µM]	EC50 [3] [µM]
Nc1nc(Nc2ccnc(Cl)c2)n[nH]1 [Compound 1, N^3-(2-Chloro-pyridin-4-yl)-1H-[1,2,4]triazole-3,5-diamine]	2.76	48.9	≥ 100
Nc1nc(Nc2ccc(C(F)(F)F)nc2)n[nH]1 [Compound 2, N^3-(6-Trifluoromethyl-pyridin-3-yl)-1H-[1,2,4] triazole-3,5-diamine]	75.4	≥ 100	≥ 100
Nc1nc(Nc2cc(Cl)nc(Cl)c2)n[nH]1 [Compound 3, N^3-(2,6-Dichloro-pyridin-4-yl)-1H-[1,2,4]triazole-3,5-diamine]	0.191	7.08	≥ 100
Nc1nc(Nc2cccc(C(F)(F)F)n2)n[nH]1 [Compound 4, N^3-(6-Trifluoromethyl-pyridin-2-yl)-1H-[1,2,4] triazole-3,5-diamine]	≥ 100	≥ 100	≥ 100
CC(C)(C)c1csc(Nc2n[nH]c(N)n2)n1 [Compound 5, N^3-(4-tert-Butyl-thiazol-2-yl)-1H-[1,2,4]triazole-3,5-diamine]	≥ 100	–	≥ 100
Nc1nc(Nc2cc(C(F)(F)F)ccn2)n[nH]1 [Compound 6, N^3-(4-Trifluoromethyl-pyridin-2-yl)-1H-[1,2,4] triazole-3,5-diamine]	62.2	–	≥ 100
Nc1nc(Nc2csc(Cl)c2)n[nH]1 [Compound 7, N^3-(5-Chloro-thiophen-3-yl)-1H-[1,2,4]triazole-3,5-diamine]	16.4	–	≥ 100
Cn1nc(Cl)cc(Nc2n[nH]c(N)n2)c1=O [Compound 8, 4-(5-Amino-1H-[1,2,4]triazol-3-ylamino)-6-chloro-2-methyl-2H-pyridazin-3-one]	–	≥ 100	≥ 100
Nc1nc(Nc2ccc3c(=O)[nH]ncc3c2)n[nH]1 [Compound 9, 6-(5-Amino-1H-[1,2,4]triazol-3-ylamino)-2H-phthalazin-l-one]	–	4.71	≥ 100
Cn1ncc2cc(Nc3n[nH]c(N)n3)ccc2c1=O [Compound 10, 6-(5-Amino-1H-[1,2,4]triazol-3-ylamino)-2-methyl-2H-phthalazin-1-one]	–	3.68	≥ 100
Nc1nc(Nc2ccc3nccn3c2)n[nH]1 [Compound 11, N^3-Imidazo[1,2-a]pyridin-6-yl-1H-[1,2,4]triazole-3,5-diamine]	22.3	–	≥ 100
Nc1nc(Nc2ccn3ccnc3c2)n[nH]1 [Compound 12, N^3-Imidazo[1,2-a]pyridin-7-yl-1H-[1,2,4]triazole-3,5-diamine]	–	> 100	> 100
